Test results taken from US9617256B2 (priority 2007, dated 2017).
In brackets after ≈: the same amount, converted by molar mass. Read-outs that look alike come from different tables or passages of the source.

Key:
[1] = test system: APAE006 (strain of P. aeruginosa in which all efflux pumps are inactivated); assay: microbe, parasite or virus in culture; assay type: cell-based; details: Pseudomonas aeruginosa, read-out: MIC APAE006, APAE006, all efflux pumps inactivated
Outline: (§1)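 (ambient air) in cation-adjusted MHB; inoculum from 0.5 McFarland suspensions, final 3×10^5–7×10^5 CFU/mL; 2-fold serial drug dilutions per CLSI. APAE006: P. aeruginosa with all efflux pumps inactivated.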

[2] = test system: AECO001 (ATCC25922); assay: MIC broth microdilution, AECO001; assay type: cell-based, E. coli; details: for MIC: Escherichia coli; for Ratio of MICs on AECO001 [Cpd (A = —CHCH3NH2)/Cpd (A = —C(CH3)2NH2)]: MIC of paired compound with A = —CHCH3NH2 divided by MIC of compound with A = —C(CH3)2NH2, n=2 data, pairs identical except for the A moiety
Outline: (§2)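 CLSI-guided microdilution: bacteria passaged overnight at 35° C. on Mueller-Hinton agar, tested in cation-adjusted broth at a final 3×10^5–7×10^5 CFU/mL across 2-fold drug dilutions, read after 18-24 h at 35° C.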

[3] = test system: APAE001 (ATCC27853); assay: MIC broth microdilution, APAE001; assay type: cell-based, P. aeruginosa; details: Pseudomonas aeruginosa, ATCC27853, read-out: MIC APAE001, APAE001 (ATCC27853)
Outline: as §2

[4] = test system: AECO063 (ATCC25922 bearing an acrAB mutation); assay: microbe, parasite or virus in culture; assay type: cell-based, E. coli; details: for MIC: Escherichia coli, ATCC25922, read-out: MIC AECO063
Outline: as §2

[5] = test system: ASAU001 (laboratory strain of S. aureus, ATCC29213); assay: MIC broth microdilution, ASAU001; assay type: cell-based; details: for MIC: Staphylococcus aureus, ATCC29213, read-out: MIC ASAU001
Outline: as §2

[6] = test system: APAE006 in the presence of 8 micrograms per milliliter of polymyxin B nonapeptide; assay type: cell-based, P. aeruginosa; details: APAE006 with 8 micrograms per milliliter polymyxin B nonapeptide
Outline: as §1

[7] = test system: AABA1060 (clinical isolate of Acinetobacter baumannii); assay: MIC broth microdilution, AABA1060; assay type: cell-based; details: for MIC: Acinetobacter baumannii, read-out: MIC AABA1060
Outline: as §2

[8] = ATCC25922, read-out: MIC AECO001
[9] = ATCC25922, read-out: MIC AECO001 HSA AGP

SMILES: COc1ccc(C#CC#Cc2ccc(C(=O)N[C@H](C(=O)NO)[C@@H](C)N)cc2)cc1 [Example 82-1, N-((1S,2R)-2-Amino-1-hydroxycarbamoyl-propyl)-4-[4-(4-methoxy-phenyl)-buta-1,3-diynyl]-benzamide]
- MIC [1]: < 2 µg/mL
- MIC [2, 8]: < 2 µg/mL
- MIC [2, 9]: 2 to 16 µg/mL (≈ 5.11 to 40.9 µM)
- MIC [3]: 2 to 16 µg/mL (≈ 5.11 to 40.9 µM)
- MIC [4]: < 2 µg/mL
- MIC [5]: 16 to 64 µg/mL (≈ 40.9 to 164 µM)
- MIC APAE006 + PMBN [6]: A (MIC's of 2.0 μg/mL or less = A)
- MIC [7]: 2 to 16 µg/mL (≈ 5.11 to 40.9 µM)

SMILES: CC(C)(N)[C@H](NC(=O)c1ccc(/C=C/C#Cc2ccc(CNC3CC3)cc2)cc1)C(=O)NO [Example 113-6]
- MIC [1]: < 2 µg/mL
- MIC [2, 8]: < 2 µg/mL
- MIC [2, 9]: < 2 µg/mL
- MIC [3]: < 2 µg/mL
- MIC [4]: < 2 µg/mL
- MIC [5]: 16 to 64 µg/mL (≈ 35.8 to 143 µM)
- MIC APAE006 + PMBN [6]: A (MIC's of 2.0 μg/mL or less = A)
- MIC [7]: < 2 µg/mL

SMILES: C[C@@H](O)[C@H](NC(=O)c1ccc(C#CC#Cc2ccc(C(F)(F)F)cc2)cc1)C(=O)NO [Example 82-22]
- MIC [1]: 16 to 64 µg/mL (≈ 37.2 to 149 µM)
- MIC AECO001 ([2]; AECO001 (ATCC25922)): A (MIC's of 2.0 μg/mL or less = A)
- MIC [2, 9]: 16 to 64 µg/mL (≈ 37.2 to 149 µM)
- MIC [3]: 16 to 64 µg/mL (≈ 37.2 to 149 µM)
- MIC AECO063 ([4]; AECO063 (ATCC25922 acrAB mutation)): A (MIC's of 2.0 μg/mL or less = A)
- MIC ASAU001 ([5]; ASAU001 (ATCC29213)): C (MIC's of greater than 16.0 μg/mL to 64.0 μg/mL = C)
- MIC APAE006 + PMBN [6]: A (MIC's of 2.0 μg/mL or less = A)
- MIC AABA1060 ([7]; AABA1060 clinical isolate): C (MIC's of greater than 16.0 μg/mL to 64.0 μg/mL = C)

SMILES: CCC#CC#Cc1ccc(C(=O)N[C@H](C(=O)NO)C(C)(C)N)cc1 [Example 91-1, N—((S)-2-Amino-1-hydroxycarbamoyl-2-methyl-propyl)-4-hexa-1,3-diynyl-benzamide]
- MIC [1]: < 2 µg/mL
- MIC [2, 8]: < 2 µg/mL
- MIC [2, 9]: < 2 µg/mL
- Ratio of MICs on AECO001 [Cpd (A = —CHCH3NH2)/Cpd (A = —C(CH3)2NH2)] [2]: 7.2
- MIC [3]: < 2 µg/mL
- MIC [4]: < 2 µg/mL
- MIC [5]: 2 to 16 µg/mL (≈ 6.11 to 48.9 µM)
- MIC APAE006 + PMBN [6]: A (MIC's of 2.0 μg/mL or less = A)
- MIC [7]: < 2 µg/mL

SMILES: CC(C)(N)[C@H](NC(=O)c1ccc(C#CC#Cc2ccc(N)cc2)cc1)C(=O)NO [Example 82-25]
- MIC [1]: < 2 µg/mL
- MIC [2, 8]: < 2 µg/mL
- MIC [2, 9]: < 2 µg/mL
- Ratio of MICs on AECO001 [Cpd (A = —CHCH3NH2)/Cpd (A = —C(CH3)2NH2)] [2]: 1.6
- MIC [3]: < 2 µg/mL
- MIC [4]: < 2 µg/mL
- MIC [5]: 16 to 64 µg/mL (≈ 41 to 164 µM)
- MIC APAE006 + PMBN [6]: A (MIC's of 2.0 μg/mL or less = A)
- MIC [7]: < 2 µg/mL

SMILES: C[C@@H](N)[C@H](NC(=O)c1ccc(C#CC#Cc2ccc(O)cc2)cc1)C(=O)NO [Example 83-2]
- MIC [1]: < 2 µg/mL
- MIC [2, 8]: < 2 µg/mL
- MIC [2, 9]: 16 to 64 µg/mL (≈ 42.4 to 170 µM)
- MIC [3]: < 2 µg/mL
- MIC [4]: < 2 µg/mL
- MIC [5]: 16 to 64 µg/mL (≈ 42.4 to 170 µM)
- MIC APAE006 + PMBN [6]: A (MIC's of 2.0 μg/mL or less = A)
- MIC [7]: 2 to 16 µg/mL (≈ 5.3 to 42.4 µM)

SMILES: C[C@@H](O)[C@H](NC(=O)c1ccc(C#Cc2ccc(CNCC(F)F)cc2)cc1)C(=O)NO [Example 119-4]
- MIC [1]: < 2 µg/mL
- MIC [2, 8]: < 2 µg/mL
- MIC [2, 9]: < 2 µg/mL
- MIC [3]: < 2 µg/mL
- MIC [4]: < 2 µg/mL
- MIC [5]: 16 to 64 µg/mL (≈ 37.1 to 148 µM)
- MIC APAE006 + PMBN [6]: A (MIC's of 2.0 μg/mL or less = A)
- MIC [7]: 2 to 16 µg/mL (≈ 4.64 to 37.1 µM)

SMILES: C[C@@H](O)[C@H](NC(=O)c1ccc(C#CC#Cc2ccc(F)cc2)cc1)C(=O)NO [Example 82-23]
- MIC [1]: < 2 µg/mL
- MIC [2, 8]: < 2 µg/mL
- MIC [2, 9]: 16 to 64 µg/mL (≈ 42.1 to 168 µM)
- MIC [3]: 16 to 64 µg/mL (≈ 42.1 to 168 µM)
- MIC [4]: < 2 µg/mL
- MIC [5]: 16 to 64 µg/mL (≈ 42.1 to 168 µM)
- MIC APAE006 + PMBN [6]: A (MIC's of 2.0 μg/mL or less = A)
- MIC [7]: 16 to 64 µg/mL (≈ 42.1 to 168 µM)

SMILES: CC(C)(N)[C@H](NC(=O)c1ccc(C#CC#CC2CCCC2)cc1)C(=O)NO [Example 91-14]
- MIC [1]: < 2 µg/mL
- MIC [2, 8]: < 2 µg/mL
- MIC [2, 9]: 2 to 16 µg/mL (≈ 5.44 to 43.5 µM)
- Ratio of MICs on AECO001 [Cpd (A = —CHCH3NH2)/Cpd (A = —C(CH3)2NH2)] [2]: 3.3
- MIC [3]: < 2 µg/mL
- MIC [4]: < 2 µg/mL
- MIC [5]: 2 to 16 µg/mL (≈ 5.44 to 43.5 µM)
- MIC APAE006 + PMBN [6]: A (MIC's of 2.0 μg/mL or less = A)
- MIC [7]: < 2 µg/mL
